In ChEMBL document CHEMBL1201862, “PubChem BioAssay data set” (2004):
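Compound exposure: 48 hours, 5 concentrations, 96-well plates. Abbreviation: GI50, concentration required for 50% inhibition of growth.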 Calls of active or inactive are those of the source. Rule as the data show it: active = GI50 up to about 1.1 µM and inactive = higher.

Assays:
Assay in all cases: inhibition of tumour cell growth, NCI panel, 48 h
NCI-H522 = test system: NCI-H522
EKVX = test system: EKVX
SF-295 = test system: SF-295
OVCAR-4 = test system: OVCAR-4
K562 = test system: K562
KM12 = test system: KM12
TK-10 = test system: TK-10
HT-29 = test system: HT-29
786-0 = test system: 786-0
HOP-62 = test system: HOP-62
UACC-62 = test system: UACC-62
SK-MEL-28 = test system: SK-MEL-28
NCI-H23 = test system: NCI-H23
HCT-116 = test system: HCT-116
SNB-78 = test system: SNB-78
OVCAR-3 = test system: OVCAR-3
MCF7 = test system: MCF7
Hs-578T = test system: Hs-578T
PC-3 = test system: PC-3
NCI/ADR-RES = test system: NCI/ADR-RES

Row | Structure (SMILES) | GI50 (NCI-H522) | GI50 (EKVX) | GI50 (SF-295) | GI50 (OVCAR-4) | GI50 (K562) | GI50 (KM12) | GI50 (TK-10) | GI50 (HT-29) | GI50 (786-0) | GI50 (HOP-62) | GI50 (UACC-62) | GI50 (SK-MEL-28) | GI50 (NCI-H23) | GI50 (HCT-116) | GI50 (SNB-78) | GI50 (OVCAR-3) | GI50 (MCF7) | GI50 (Hs-578T) | GI50 (PC-3) | GI50 (NCI/ADR-RES)
1 | COc1cccc(NC(=O)CC(=O)N2N=C(n3ccc4ccccc43)CC2c2ccccc2)c1 (configuration not stated) | > 100 µM (inactive) | > 100 µM (inactive) | > 100 µM (inactive) | > 100 µM (inactive) | > 100 µM (inactive) | > 100 µM (inactive) | > 100 µM (inactive) | > 100 µM (inactive) | > 100 µM (inactive) | > 100 µM (inactive) | > 100 µM (inactive) | > 100 µM (inactive) | > 100 µM (inactive) | > 100 µM (inactive) | > 100 µM (inactive) | > 100 µM (inactive) | – | – | – | –
2 | CCOc1cc2c(cc1OC)c[n+](C)c1c3cc(OC)c(OC)cc3ccc21 | > 52.1 µM (inactive) | > 100 µM (inactive) | > 100 µM (inactive) | > 100 µM (inactive) | > 34.3 µM (inactive) | 72.4 µM (inactive) | 59.4 µM (inactive) | > 100 µM (inactive) | > 42.1 µM (inactive) | > 81.7 µM (inactive) | > 91 µM (inactive) | > 64.1 µM (inactive) | > 93.5 µM (inactive) | 49.1 µM (inactive) | > 57 µM (inactive) | > 100 µM (inactive) | – | – | – | –
3 | COc1cc2c(c(OC)c1)C(=O)C(=O)C(CC1(C)OCCCO1)=C2 | 1.4 µM (inactive) | 15.9 µM (inactive) | 13.9 µM (inactive) | 6.22 µM (inactive) | 2.29 µM (inactive) | 16 µM (inactive) | 6.14 µM (inactive) | 18.4 µM (inactive) | 9.1 µM (inactive) | 17.5 µM (inactive) | 7.91 µM (inactive) | 15.2 µM (inactive) | 9.12 µM (inactive) | 4.38 µM (inactive) | 9.95 µM (inactive) | 3.8 µM (inactive) | – | – | – | –
4 | C=C(COC(C)=O)CC(/C=C(\C)CC/C=C(\C)CO)OC(C)=O (configuration not stated) | > 100 µM (inactive) | > 100 µM (inactive) | > 100 µM (inactive) | > 100 µM (inactive) | > 100 µM (inactive) | > 100 µM (inactive) | > 100 µM (inactive) | > 100 µM (inactive) | > 100 µM (inactive) | > 100 µM (inactive) | > 100 µM (inactive) | > 100 µM (inactive) | > 100 µM (inactive) | > 100 µM (inactive) | > 100 µM (inactive) | > 100 µM (inactive) | – | – | – | –
5 | CN(C)CCS/C(=N\c1ccccc1)N1C=COC=C1 | 17.4 µM (inactive) | 86.1 µM (inactive) | 99.8 µM (inactive) | > 44.6 µM (inactive) | > 67.8 µM (inactive) | 57.4 µM (inactive) | 47.5 µM (inactive) | 43.7 µM (inactive) | 20.1 µM (inactive) | > 100 µM (inactive) | 16 µM (inactive) | 19.5 µM (inactive) | 25.8 µM (inactive) | 23.6 µM (inactive) | 26.9 µM (inactive) | 46 µM (inactive) | 17.9 µM (inactive) | 89.1 µM (inactive) | 34.4 µM (inactive) | –
6 | Cn1cnc([N+](=O)[O-])c1Sc1nccn1-c1cccc2ccccc12 | 8.69 µM (inactive) | 26.9 µM (inactive) | 48.4 µM (inactive) | 24 µM (inactive) | 19.8 µM (inactive) | 35.7 µM (inactive) | 22 µM (inactive) | 23.9 µM (inactive) | 48.1 µM (inactive) | > 100 µM (inactive) | 16.4 µM (inactive) | 22.5 µM (inactive) | 23 µM (inactive) | 19.7 µM (inactive) | 24.7 µM (inactive) | 22.9 µM (inactive) | – | – | – | –
7 | CC(=O)N1CC(=O)NC1=S | > 100 µM (inactive) | > 100 µM (inactive) | > 100 µM (inactive) | > 100 µM (inactive) | > 100 µM (inactive) | > 100 µM (inactive) | > 100 µM (inactive) | > 100 µM (inactive) | > 100 µM (inactive) | > 100 µM (inactive) | > 100 µM (inactive) | > 100 µM (inactive) | > 100 µM (inactive) | > 100 µM (inactive) | > 100 µM (inactive) | > 100 µM (inactive) | – | – | – | –
8 | Cn1cc2ccccc2c1-c1nc(F)nc(OCC(=O)[C@H]2CCC3[C@@H]4CCC5=CC(=O)CC[C@]5(C)C4[C@@H](O)C[C@@]32C)n1 (some centres not stated) | 15.2 µM (inactive) | 23.4 µM (inactive) | 23.8 µM (inactive) | 14.9 µM (inactive) | 2.91 µM (inactive) | 16.6 µM (inactive) | 23.1 µM (inactive) | 21.6 µM (inactive) | 16.5 µM (inactive) | 22 µM (inactive) | 17.1 µM (inactive) | 11.2 µM (inactive) | 7.78 µM (inactive) | 11.1 µM (inactive) | 13.2 µM (inactive) | 17 µM (inactive) | – | – | – | –
9 | COC(=O)c1c2cccccc-2c(Cc2c3cccccc-3c(C(=O)OC)c2O)c1O | > 100 µM (inactive) | > 100 µM (inactive) | > 100 µM (inactive) | > 100 µM (inactive) | > 100 µM (inactive) | > 100 µM (inactive) | > 100 µM (inactive) | > 100 µM (inactive) | > 100 µM (inactive) | > 100 µM (inactive) | > 100 µM (inactive) | > 100 µM (inactive) | > 100 µM (inactive) | > 100 µM (inactive) | > 100 µM (inactive) | > 100 µM (inactive) | – | – | – | –
10 | CC(=O)c1cccc(NC2C(N)C(NC(=O)N(C)C)(C(C)O)C(C)(O)C2(O)COC(=O)c2c(C)cccc2O)c1 (configuration not stated) | 0.01 µM (active) | < 0.001 µM (active) | 0.00107 µM (active) | < 0.001 µM (active) | < 0.001 µM (active) | < 0.001 µM (active) | < 0.001 µM (active) | < 0.001 µM (active) | < 0.001 µM (active) | < 0.001 µM (active) | 0.01 µM (active) | < 0.001 µM (active) | < 0.001 µM (active) | < 0.001 µM (active) | 0.01 µM (active) | 0.01 µM (active) | < 0.001 µM (active) | < 0.001 µM (active) | – | 0.0134 µM (active)
11 | COc1ccc2[nH]c3c4c(cc(-c5ccccc5)c3c2c1)C(=O)N(c1ccccc1)C4=O | 8.24 µM (inactive) | 38.6 µM (inactive) | 4.84 µM (inactive) | 0.411 µM (active) | 22.1 µM (inactive) | 33.3 µM (inactive) | 64.9 µM (inactive) | 22.7 µM (inactive) | 4.9 µM (inactive) | 14.2 µM (inactive) | 21.7 µM (inactive) | 37.9 µM (inactive) | 31.9 µM (inactive) | 29.2 µM (inactive) | 27.2 µM (inactive) | 17.9 µM (inactive) | – | – | – | –
